# Measured values taken from US20110172297A1, “Oxopiperdinyl And Pyranyl Sulfonamides and Pharmaceutical Compositions Thereof” (Pfizer Inc, priority 2008, published 2011).
# Tested on: AMPA receptors
# Experiment: AMPA ES cell FLIPR screen (AMPA Potentiator Assay)
# Type: cell-based
# Conditions: murine ES cell-derived neurons, FLIPR Fluo-4 calcium signal, 32 uM AMPA challenge; values marked * are the geometric mean of 2-9 EC50 determinations
# Protocol: The murine ES cell line used was E14-Sx1-16C, which has a targeted mutation in the Sox1 gene, a neuroectodermal marker, that offers G418 resistance when the Sox1 gene is expressed (Stem Cell Sciences). ES cells were maintained undifferentiated as previously described (Roach). […] ES cells were plated on gelatin-coated dishes (BD Biosciences), the media was changed daily and the cells were dissociated with 0.05% Trypsin EDTA (Invitrogen) every other day.
# Embryoid Body Formation: Prior to embryoid body (EB) formation the ES cells were weaned from FBS onto Knockout Serum Replacement (KSR) (Invitrogen). To form EBs, ES cells were dissociated into a single cell suspension, then 3×10^6 cells were plated in bacteriology dishes (Nunc 4014) and grown as a suspension culture in NeuroEB-I medium that consisted of Knockout™ D-MEM (Invitrogen), supplemented with 10% KSR (Invitrogen), 0.2 mM L-Glutamine (Invitrogen), 0.1 mM MEM non-essential amino acids (Invitrogen), 30 μg/ml Gentamicin (Invitrogen), 1000 u/ml ESGRO (Chemicon), 0.1 mM 2-Mercaptoethanl (Sigma) and 150 ng/ml Transferrin (Invitrogen). The plates were put on a Stovall Belly Button shaker in an atmospheric oxygen incubator. The media was changed on day 2 of EB formation with NeuroEB-I and on day 4 with NeuroEB-II (NeuroEB-I plus 1 μg/ml mNoggin [R&D Systems]).
# Neuronal Precursor Selection and Expansion: On day 5 of EB formation, EBs were dissociated with 0.05% Trypsin EDTA, and 4×10^6cells/100 mm dish were plated on Laminin coated tissue culture dishes in Neuroll-G418 medium that consisted of a base medium of a 1:1 mixture of D-MEM/F12 supplemented with N2 supplements and NeuroBasal Medium supplemented with B27 supplement and 0.1 mM L-Glutamine (all from Invitrogen). The base medium was then supplemented with 10 ng/ml bFGF (Invitrogen), 1 μg/ml mNoggin, 500 ng/ml SHH—N, 100 ng/ml FGF-8b (R&D Systems), 1 μg/ml Laminin and 200 μg/ml G418 (Invitrogen) for selection of neuronal precursors expressing Sox-1. The plates were put in an incubator that contained 2% Oxygen and were maintained in these conditions. During the 6-day selection period, the Neuroll media was changed daily. On day 6, the surviving neuronal precursor foci were dissociated with 0.05% Trypsin EDTA and the cells were plated at a density of 1.5×10^6 cells/100 mm Laminin coated dish in Neuroll-G418 medium. The cells were dissociated every other day for expansion, and prepared for Cryopreservation at passage 3 or 4. The crypreservation medium contained 50% KSR, 10% Dimethyl Sulfoxide (DMSO) (Sigma) and 40% Neurol-G418I medium. Neuronal precursors were crypreserved at a concentration of 4×10^6 cells/ml and 1 ml/cryovial in a controlled rate freezer overnight then transferred to an ultra-low freezer or liquid nitrogen for long-term storage.
# Neuronal Differentiation: Cryopreserved ES cell-derived neuronal precursors were thawed by the rapid thaw method in a 37-degree water-bath. The cells were transferred from the cryovial to a 100 mm Laminin coated tissue culture dish that already contained Neuroll-G418 that had been equilibrated in a 2% Oxygen incubator. The media was changed with fresh Neuroll-G418 the next day. The cells were dissociated every other day as described above for expansion to generate enough cells to plate for the screen. For the screen, the cells were plated into 384-well poly-d-lysine coated tissue culture dishes (BD Biosciences) by the automated SelecT at a cell density of 6K cells/well in differentiation medium Neurolll that contained a 4:1 ratio of the NeuroBasalMedium/B27:D-MEM/F12/N2 supplemented with 1 μM cAMP (Sigma), 200 μM Ascorbic Acid (Sigma), 1 μg/ml Laminin (Invitrogen) and 10 ng/ml BDNF (R&D Systems). The plates were put in an incubator with 2% Oxygen and allowed to complete the differentiation process for 7 days. The cells could then be used over a 5-day period for the high throughput screen.
# On the day of the assay, the FLIPR assay may be performed using the following methods: […]
row,SMILES,EC50 [nM]
1,"CC(C)S(=O)(=O)N[C@@H]1CCOC[C@H]1c1ccc(-c2ccccc2C#N)cc1 [Example 32, N-[(3S,4R)-3-(2′-cyanobiphenyl-4-yl)tetrahydro-2H-pyran-4-yl]propane-2-sulfonamide]",> 26600
2,"CC(C)S(=O)(=O)N[C@@H]1CCOC[C@H]1c1ccc(-c2ccccc2)cc1 [Example 33, N-[(3S,4R)-3-biphenyl-4-yltetrahydro-2H-pyran-4-yl]propane-2-sulfonamide]",> 31600
3,"CCOc1ccccc1-c1ccc([C@@H]2COCC[C@H]2NS(=O)(=O)C(C)C)cc1 [Example 35, N-[(3S,4R)-3-(2′-ethoxybiphenyl-4-yl)tetrahydro-2H-pyran-4-yl]propane-2-sulfonamide]",4570
4,"CC(C)S(=O)(=O)N[C@H]1CCOC[C@@H]1c1ccc(-c2cccnc2)cc1 [Example 36, N-[(3R,4S)-3-(4-pyridin-3-ylphenyl)tetrahydro-2H-pyran-4-yl]propane-2-sulfonamide]",> 31600
5,"CC(C)S(=O)(=O)N[C@@H]1CCOC[C@H]1c1ccc(-c2cccnc2)cc1 [Example 37, N-[(3S,4R)-3-(4-pyridin-3-ylphenyl)tetrahydro-2H-pyran-4-yl]propane-2-sulfonamide]",> 4670
6,"CC(C)S(=O)(=O)N[C@@H]1CCOC[C@H]1c1ccc(-c2ccc(C#N)cc2)cc1 [Example 39, N-[(3S,4R)-3-(4′-cyanobiphenyl-4-yl)tetrahydro-2H-pyran-4-yl]propane-2-sulfonamide]",> 31600
7,"CC(C)S(=O)(=O)N[C@@H]1CCOC[C@H]1c1ccc(-c2ccc(C#N)s2)cc1 [Example 42, N-{(3S,4R)-3-[4-(5-cyano-2-thienyl)phenyl]tetrahydro-2H-pyran-4-yl}propane-2-sulfonamide]",> 31600
8,"CC(C)S(=O)(=O)N[C@@H]1CCCO[C@H]1c1ccc(-c2ccccc2)cc1 [Example 43, N-[(2S,3R)-2-biphenyl-4-yltetrahydro-2H-pyran-3-yl]propane-2-sulfonamide]",> 31600
9,"CCOc1ccccc1-c1ccc([C@@H]2OCCC[C@H]2NS(=O)(=O)C(C)C)cc1 [Example 45, N-[(2S,3R)-2-(2′-ethoxybiphenyl-4-yl)tetrahydro-2H-pyran-3-yl]propane-2-sulfonamide]",> 9610
10,"CC(C)S(=O)(=O)N[C@@H]1CCCO[C@H]1c1ccc(-c2ccccc2C#N)cc1 [Example 47, N-[(2S,3R)-2-(2′-cyanobiphenyl-4-yl)tetrahydro-2H-pyran-3-yl]propane-2-sulfonamide]",20300

# Stronger by EC50, values ahead:
row,EC50 [nM],SMILES
1,220,"CCOc1ccccc1-c1ccc([C@H]2COCC[C@@H]2NS(=O)(=O)C(C)C)cc1 [Example 34, N-[(3R,4S)-3-(2′-ethoxybiphenyl-4-yl)tetrahydro-2H-pyran-4-yl]propane-2-sulfonamide]"
2,1040,"CC(C)S(=O)(=O)N[C@H]1CCOC[C@@H]1c1ccc(-c2ccc(C#N)cc2)cc1 [Example 38, N-[(3R,4S)-3-(4′-cyanobiphenyl-4-yl)tetrahydro-2H-pyran-4-yl]propane-2-sulfonamide]"
3,255,"CC(C)S(=O)(=O)N[C@H]1CCOC[C@@H]1c1ccc(-c2ccc(F)cc2C#N)cc1 [Example 40, N-[(3R,4S)-3-(2′-cyano-4′-fluorobiphenyl-4-yl)tetrahydro-2H-pyran-4-yl]propane-2-sulfonamide]"
4,826,"CC(C)S(=O)(=O)N[C@H]1CCOC[C@@H]1c1ccc(-c2ccc(C#N)s2)cc1 [Example 41, N-{(3R,4S)-3-[4-(5-cyano-2-thienyl)phenyl]tetrahydro-2H-pyran-4-yl}propane-2-sulfonamide]"
5,493,"CCOc1ccccc1-c1ccc([C@H]2OCCC[C@@H]2NS(=O)(=O)C(C)C)cc1 [Example 44, N-[(2R,3S)-2-(2′-ethoxybiphenyl-4-yl)tetrahydro-2H-pyran-3-yl]propane-2-sulfonamide]"
6,1240,"CC(C)S(=O)(=O)N[C@H]1CCCO[C@@H]1c1ccc(-c2ccccc2C#N)cc1 [Example 46, N-[(2R,3S)-2-(2′-cyanobiphenyl-4-yl)tetrahydro-2H-pyran-3-yl]propane-2-sulfonamide]"
